Drawing on ChEMBL document CHEMBL1155663, “A new major triterpene saponin from the roots of Cucurbita foetidissima” (J Nat Prod, 2000), this text covers Activity for 1 compound.

The experiment deals with HT-29. Nature of the experiment: Potentiation of cisplatin-induced cytotoxicity against human HT29 cells. Type of experiment: functional, cell-based.

Activity calls are given as the source filed them. The calls are words filed in the database; no cut-off is given here.

Regarding `C[C@@H]1O[C@@H](O[C@@H]2[C@@H](OC(=O)[C@]34CCC(C)(C)C[C@@H]3C3=CC[C@@H]5[C@@]6(C)CC[C@H](O[C@@H]7O[C@H](C(=O)O)[C@@H](O)[C@H](O)[C@H]7O)C(C)(C)[C@@H]6CC[C@@]5(C)[C@]3(C)C[C@H]4O)OC[C@@H](O)[C@H]2O)[C@H](O)[C@H](O[C@H]2OC[C@H](O)[C@@H](O[C@H]3O[C@@H](CO)[C@H](O)[C@@H](O)[C@@H]3O)[C@@H]2O)[C@H]1O[C@@H]1OC[C@@H](O)[C@H](O)[C@H]1O`, the result was inactive.
